# Data published in patent publication US12528786B2, “Plasma kallikrein inhibitors” (Merck Sharp & Dohme LLC, priority 2020, dated 2026).
# Biological target: T1, Human plasma kallikrein (Homo sapiens, UniProt P03952)
# T1 construct: yields a heavy chain (371 amino acids) and a light chain (248 amino acids); purchased Enzyme Research Laboratories
# Assay: Kallikrein Assay (fluorogenic substrate hydrolysis, AFC release)
# Assay type: biochemical
# Settings: purified Human plasma kallikrein 0.5 nM; substrate Acetyl-K—P—R-AFC 100 mM; 50 mM HEPES pH 7.4
# Method: The effectiveness of a compound of the present invention as an inhibitor of Kallikrein can be determined using a relevant purified serine protease, and an appropriate synthetic substrate. The rate of hydrolysis of the chromogenic or fluorogenic substrate by the relevant serine protease was measured both in the absence and presence of compounds of the present invention. Assays were conducted at room temperature or at 37° C. […] A decrease in the rate of fluorescence change in the presence of inhibitor is indicative of enzyme inhibition. Such methods are known to one skilled in the art. The results of this assay are expressed as the half-maximal inhibitory concentrations (IC50), or the inhibitory constant, Ki.
# Kallikrein determinations were made in 50 mM HEPES buffer at pH 7.4 containing 150 mM NaCl, 5 mM CaCl2), and 0.1% PEG 8000 (polyethylene glycol; Fisher Scientific). Determinations were made using purified Human plasma kallikrein at a final concentration of 0.5 nM (Enzyme Research Laboratories) and the synthetic substrate, Acetyl-K—P—R-AFC (Sigma #C6608) at a concentration of […].
# Activity assays were performed by diluting a stock solution of substrate at least tenfold to a final concentration ≤0.2 Km into a solution containing enzyme or enzyme equilibrated with inhibitor. Times required to achieve equilibration between enzyme and inhibitor were determined in control experiments. The reactions were performed under linear progress curve conditions and fluorescence increase measured at 405 Ex/510 Em nm. Values were converted to percent inhibition of the control reaction (after subtracting 100% Inhibition value). IC50 was determined by inflection point from a four parameter logistic curve fit. Ki was calculated using the Cheng Prusoff equation, Ki=IC50/(1+([S]/Km)).
# T1 sequence (P03952 391-638 limits assumed): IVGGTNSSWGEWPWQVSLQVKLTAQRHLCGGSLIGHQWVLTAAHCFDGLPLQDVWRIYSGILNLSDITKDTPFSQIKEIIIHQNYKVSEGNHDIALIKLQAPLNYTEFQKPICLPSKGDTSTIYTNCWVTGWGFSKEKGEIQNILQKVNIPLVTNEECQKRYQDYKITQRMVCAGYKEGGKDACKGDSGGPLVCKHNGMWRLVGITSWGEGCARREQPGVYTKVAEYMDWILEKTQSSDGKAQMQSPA
# T1 sequence (P03952 20-390 partner limits assumed): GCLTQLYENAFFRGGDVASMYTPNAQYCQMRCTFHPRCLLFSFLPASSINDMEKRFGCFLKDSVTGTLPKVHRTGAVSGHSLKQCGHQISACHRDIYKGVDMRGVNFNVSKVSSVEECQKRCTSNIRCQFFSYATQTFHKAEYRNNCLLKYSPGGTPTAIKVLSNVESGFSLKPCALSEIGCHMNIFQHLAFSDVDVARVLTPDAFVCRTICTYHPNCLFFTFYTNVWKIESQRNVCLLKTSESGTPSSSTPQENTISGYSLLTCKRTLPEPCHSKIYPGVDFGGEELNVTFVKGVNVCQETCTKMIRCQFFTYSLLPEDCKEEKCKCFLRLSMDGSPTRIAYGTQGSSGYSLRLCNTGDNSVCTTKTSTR
row,Structure (SMILES),IC50
1,"Cc1ccc(C#N)c([C@H]2C[C@@H](NC(=O)c3cnn(C(C)c4cnc(N5C[C@H]6C[C@H]6C5=O)c(C)c4C)c3)C2)c1 (single isomer, unassigned) [Example 45, N-((cis)-3-(2-cyano-5-methylphenyl)cyclobutyl)-1-((R or S)-1-(4,5-dimethyl-6-((1R,5S)-2-oxo-3-azabicyclo[3.1.0]hexan-3-yl)pyridin-3-yl)ethyl)-1H-pyrazole-4-carboxamide]",0.2 nM
2,"Cc1ccc(C#N)c([C@H]2C[C@@H](NC(=O)c3cnn(C(C)c4cnc(N5C[C@H]6C[C@H]6C5=O)c(C)c4C)c3)C2)c1 (single isomer, unassigned) [Example 46, N-((cis)-3-(2-cyano-5-methylphenyl)cyclobutyl)-1-((S or R)-1-(4,5-dimethyl-6-((1R,5S)-2-oxo-3-azabicyclo[3.1.0]hexan-3-yl)pyridin-3-yl)ethyl)-1H-pyrazole-4-carboxamide]",2.7 nM
3,"COCc1nn(C(C)c2cnc(N3C[C@H]4C[C@H]4C3=O)cc2C)cc1C(=O)N[C@H]1C[C@@H](c2cc(Cl)ccc2C#N)C1 (single isomer, unassigned) [Example 49, N-((cis)-3-(5-chloro-2-cyanophenyl)cyclobutyl)-3-(methoxymethyl)-1-((R or S)-1-(4-methyl-6-((1R,5S)-2-oxo-3-azabicyclo[3.1.0]hexan-3-yl)pyridin-3-yl)ethyl)-1H-pyrazole-4-carboxamide]",0.4 nM
4,"Cc1ccc(C#N)c([C@H]2C[C@@H](NC(=O)c3cnn(C(C)c4cnc(N5C[C@H]6C[C@H]6C5=O)c(C)n4)c3)C2)n1 (single isomer, unassigned) [Example 51, N-((cis)-3-(3-cyano-6-methylpyridin-2-yl)cyclobutyl)-1-((R or S)-1-(6-methyl-5-((1R,5S)-2-oxo-3-azabicyclo[3.1.0]hexan-3-yl)pyrazin-2-yl)ethyl)-1H-pyrazole-4-carboxamide]",2.4 nM
5,"Cc1ccc(C#N)c([C@H]2C[C@@H](NC(=O)c3cnn(C(C)c4cnc(N5C[C@H]6C[C@H]6C5=O)c(C)n4)c3)C2)n1 (single isomer, unassigned) [Example 52, N-((cis)-3-(3-cyano-6-methylpyridin-2-yl)cyclobutyl)-1-((S or R)-1-(6-methyl-5-((1R,5S)-2-oxo-3-azabicyclo[3.1.0]hexan-3-yl)pyrazin-2-yl)ethyl)-1H-pyrazole-4-carboxamide]",10.1 nM
6,"Cc1cc(N2C[C@H]3C[C@H]3C2=O)nnc1C(C)n1cc(C(=O)N[C@H]2C[C@@H](c3cc(Cl)ccc3C#N)C2)cn1 (single isomer, unassigned) [Example 53, N-((cis)-3-(5-chloro-2-cyanophenyl)cyclobutyl)-1-((R or S)-1-(4-methyl-6-((1R,5S)-2-oxo-3-azabicyclo[3.1.0]hexan-3-yl)pyridazin-3-yl)ethyl)-1H-pyrazole-4-carboxamide]",4.7 nM
7,"Cc1cc(N2C[C@H]3C[C@H]3C2=O)nnc1C(C)n1cc(C(=O)N[C@H]2C[C@@H](c3cc(Cl)ccc3C#N)C2)cn1 (single isomer, unassigned) [Example 54, N-((cis)-3-(5-chloro-2-cyanophenyl)cyclobutyl)-1-((S or R)-1-(4-methyl-6-((1R,5S)-2-oxo-3-azabicyclo[3.1.0]hexan-3-yl)pyridazin-3-yl)ethyl)-1H-pyrazole-4-carboxamide]",239 nM
8,"Cc1cc([C@@H](C)n2cc(C(=O)N[C@H]3C[C@@H](c4cc(Cl)ccc4C#N)C3)nn2)cnc1N1C[C@H]2C[C@H]2C1=O (single isomer, unassigned) [Example 55]",0.6 nM
9,"CC(c1ccc(N2C[C@H]3C[C@H]3C2=O)nc1)n1cc(C(=O)N[C@H]2C[C@@H](c3cc(Cl)ccc3C#N)C2)nn1 (single isomer, unassigned) [Example 57, N-((cis)-3-(5-chloro-2-cyanophenyl)cyclobutyl)-1-((R or S)-1-(6-((1R,5S)-2-oxo-3-azabicyclo[3.1.0]hexan-3-yl)pyridin-3-yl)ethyl)-1H-1,2,3-triazole-4-carboxamide]",7.7 nM
10,"Cc1cc(N2C[C@H]3C[C@H]3C2=O)ncc1C(C)n1cc(C(=O)N[C@@H]2CC[C@H](c3cc(Cl)ccc3C#N)C2)nn1 (single isomer, unassigned) [Example 62, N-((1R,3S)-3-(5-chloro-2-cyanophenyl)cyclopentyl)-1-((R or S)-1-(4-methyl-6-((1R,5S)-2-oxo-3-azabicyclo[3.1.0]hexan-3-yl)pyridin-3-yl)ethyl)-1H-1,2,3-triazole-4-carboxamide]",2710 nM
11,"Cc1cc(N2C[C@H]3C[C@H]3C2=O)ncc1C(C)n1cc(C(=O)N[C@@H]2CC[C@H](c3cc(Cl)ccc3C#N)C2)nn1 (single isomer, unassigned) [Example 63, N-((1R,3S)-3-(5-chloro-2-cyanophenyl)cyclopentyl)-1-((S or R)-1-(4-methyl-6-((1R,5S)-2-oxo-3-azabicyclo[3.1.0]hexan-3-yl)pyridin-3-yl)ethyl)-1H-1,2,3-triazole-4-carboxamide]",26 nM
12,"Cc1cc(N2C[C@H]3C[C@H]3C2=O)ncc1C(C)n1cc(C(=O)N[C@H]2C[C@@](C)(c3cc(Cl)ccc3C#N)C2)nn1 (single isomer, unassigned) [Example 65, N-((cis)-3-(5-chloro-2-cyanophenyl)-3-methylcyclobutyl)-1-((S or R)-1-(4-methyl-6-((1R,5S)-2-oxo-3-azabicyclo[3.1.0]hexan-3-yl)pyridin-3-yl)ethyl)-1H-1,2,3-triazole-4-carboxamide]",0.3 nM

# Next, values leading:
row,IC50,Structure (SMILES)
1,2.1 nM,"Cc1cc(N2C[C@H]3C[C@H]3C2=O)nnc1C(C)n1cc(C(=O)N[C@H]2C[C@@H](c3cc(Cl)ccc3C#N)C2)cn1 (single isomer, unassigned) [Example 47, N-((cis)-3-(5-chloro-2-cyanophenyl)cyclobutyl)-1-((R or S)-1-(4-methyl-6-((1R,5S)-2-oxo-3-azabicyclo[3.1.0]hexan-3-yl)pyridazin-3-yl)ethyl)-1H-pyrazole-4-carboxamide]"
2,127 nM,"Cc1cc(N2C[C@H]3C[C@H]3C2=O)nnc1C(C)n1cc(C(=O)N[C@H]2C[C@@H](c3cc(Cl)ccc3C#N)C2)cn1 (single isomer, unassigned) [Example 48, N-((cis)-3-(5-chloro-2-cyanophenyl)cyclobutyl)-1-((S or R)-1-(4-methyl-6-((1R,5S)-2-oxo-3-azabicyclo[3.1.0]hexan-3-yl)pyridazin-3-yl)ethyl)-1H-pyrazole-4-carboxamide]"
3,8.2 nM,"COCc1nn(C(C)c2cnc(N3C[C@H]4C[C@H]4C3=O)cc2C)cc1C(=O)N[C@H]1C[C@@H](c2cc(Cl)ccc2C#N)C1 (single isomer, unassigned) [Example 50, N-((cis)-3-(5-chloro-2-cyanophenyl)cyclobutyl)-3-(methoxymethyl)-1-((S or R)-1-(4-methyl-6-((1R,5S)-2-oxo-3-azabicyclo[3.1.0]hexan-3-yl)pyridin-3-yl)ethyl)-1H-pyrazole-4-carboxamide]"
4,1.5 nM,"Cc1cc([C@H](C)n2cc(C(=O)N[C@H]3C[C@@H](c4cc(Cl)ccc4C#N)C3)nn2)cnc1N1C[C@H]2C[C@H]2C1=O (single isomer, unassigned) [Example 56]"
5,5 nM,"CC(c1ccc(N2C[C@H]3C[C@H]3C2=O)nc1)n1cc(C(=O)N[C@H]2C[C@@H](c3cc(Cl)ccc3C#N)C2)nn1 (single isomer, unassigned) [Example 58, N-((cis)-3-(5-chloro-2-cyanophenyl)cyclobutyl)-1-((S or R)-1-(6-((1R,5S)-2-oxo-3-azabicyclo[3.1.0]hexan-3-yl)pyridin-3-yl)ethyl)-1H-1,2,3-triazole-4-carboxamide]"
6,0.6 nM,"Cc1cc(N2C[C@H]3C[C@H]3C2=O)ncc1C(C)n1cc(C(=O)N[C@H]2C[C@@H](c3cc(Cl)ccc3C#N)C2)nn1 (single isomer, unassigned) [Example 59, N-((cis)-3-(5-chloro-2-cyanophenyl)cyclobutyl)-1-((R or S)-1-(4-methyl-6-((1R,5S)-2-oxo-3-azabicyclo[3.1.0]hexan-3-yl)pyridin-3-yl)ethyl)-1H-1,2,3-triazole-4-carboxamide]"
7,14.6 nM,"Cc1cc(N2C[C@H]3C[C@H]3C2=O)ncc1C(C)n1cc(C(=O)N[C@H]2C[C@@H](c3cc(Cl)ccc3C#N)C2)nn1 (single isomer, unassigned) [Example 60, N-((cis)-3-(5-chloro-2-cyanophenyl)cyclobutyl)-1-((S or R)-1-(4-methyl-6-((1R,5S)-2-oxo-3-azabicyclo[3.1.0]hexan-3-yl)pyridin-3-yl)ethyl)-1H-1,2,3-triazole-4-carboxamide]"
8,15.9 nM,"Cc1cc(N2C[C@H]3C[C@H]3C2=O)ncc1C(C)n1cc(C(=O)N[C@H]2C[C@@](C)(c3cc(Cl)ccc3C#N)C2)nn1 (single isomer, unassigned) [Example 64, N-((cis)-3-(5-chloro-2-cyanophenyl)-3-methylcyclobutyl)-1-((R or S)-1-(4-methyl-6-((1R,5S)-2-oxo-3-azabicyclo[3.1.0]hexan-3-yl)pyridin-3-yl)ethyl)-1H-1,2,3-triazole-4-carboxamide]"
